{
  "source": "the NIST ThermoML archive (doi:10.1021/je060457+)",
  "test": "refractive index (Na D-line) (dimensionless); xn = mol fraction of the nth substance listed",
  "details": "101 kPa, Liquid, Standard Abbe refractometry",
  "note": "Numbers after ± are expanded uncertainties.",
  "data": [
    {"smiles": "CNCCO", "note": "[2-(methylamino)ethanol] + O", "values": [
      {"measurement": "refractive index", "setting": "293.15 K, x1 = 0.0493", "result": "1.3559 ± 0.0004"},
      {"measurement": "refractive index", "setting": "293.15 K, x1 = 0.0657", "result": "1.3625 ± 0.0004"},
      {"measurement": "refractive index", "setting": "293.15 K, x1 = 0.1054", "result": "1.3767 ± 0.0004"},
      {"measurement": "refractive index", "setting": "293.15 K, x1 = 0.1987", "result": "1.3997 ± 0.0005"},
      {"measurement": "refractive index", "setting": "293.15 K, x1 = 0.301", "result": "1.4151 ± 0.0004"},
      {"measurement": "refractive index", "setting": "293.15 K, x1 = 0.3834", "result": "1.4235 ± 0.0004"},
      {"measurement": "refractive index", "setting": "293.15 K, x1 = 0.5041", "result": "1.4288 ± 0.0005"},
      {"measurement": "refractive index", "setting": "293.15 K, x1 = 0.6", "result": "1.4324 ± 0.0005"},
      {"measurement": "refractive index", "setting": "293.15 K, x1 = 0.6974", "result": "1.4347 ± 0.0006"},
      {"measurement": "refractive index", "setting": "293.15 K, x1 = 0.8008", "result": "1.4366 ± 0.0006"},
      {"measurement": "refractive index", "setting": "293.15 K, x1 = 0.9031", "result": "1.4381 ± 0.0006"},
      {"measurement": "refractive index", "setting": "293.15 K, x1 = 1", "result": "1.4393 ± 0.0006"},
      {"measurement": "refractive index", "setting": "298.15 K, x1 = 0.0493", "result": "1.3552 ± 0.0004"},
      {"measurement": "refractive index", "setting": "298.15 K, x1 = 0.0657", "result": "1.3617 ± 0.0004"},
      {"measurement": "refractive index", "setting": "298.15 K, x1 = 0.1054", "result": "1.3754 ± 0.0005"},
      {"measurement": "refractive index", "setting": "298.15 K, x1 = 0.1987", "result": "1.3983 ± 0.0005"},
      {"measurement": "refractive index", "setting": "298.15 K, x1 = 0.301", "result": "1.4137 ± 0.0005"},
      {"measurement": "refractive index", "setting": "298.15 K, x1 = 0.3834", "result": "1.4218 ± 0.0006"},
      {"measurement": "refractive index", "setting": "298.15 K, x1 = 0.5041", "result": "1.4272 ± 0.0006"},
      {"measurement": "refractive index", "setting": "298.15 K, x1 = 0.6", "result": "1.4306 ± 0.0006"},
      {"measurement": "refractive index", "setting": "298.15 K, x1 = 0.6974", "result": "1.4329 ± 0.0006"},
      {"measurement": "refractive index", "setting": "298.15 K, x1 = 0.8008", "result": "1.4348 ± 0.0006"},
      {"measurement": "refractive index", "setting": "298.15 K, x1 = 0.9031", "result": "1.4363 ± 0.0006"},
      {"measurement": "refractive index", "setting": "298.15 K, x1 = 1", "result": "1.4375 ± 0.0006"},
      {"measurement": "refractive index", "setting": "303.15 K, x1 = 0.0493", "result": "1.3544 ± 0.0004"},
      {"measurement": "refractive index", "setting": "303.15 K, x1 = 0.0657", "result": "1.3608 ± 0.0005"},
      {"measurement": "refractive index", "setting": "303.15 K, x1 = 0.1054", "result": "1.3744 ± 0.0005"},
      {"measurement": "refractive index", "setting": "303.15 K, x1 = 0.1987", "result": "1.3967 ± 0.0005"},
      {"measurement": "refractive index", "setting": "303.15 K, x1 = 0.301", "result": "1.412 ± 0.0005"},
      {"measurement": "refractive index", "setting": "303.15 K, x1 = 0.3834", "result": "1.4201 ± 0.0005"},
      {"measurement": "refractive index", "setting": "303.15 K, x1 = 0.5041", "result": "1.4253 ± 0.0006"},
      {"measurement": "refractive index", "setting": "303.15 K, x1 = 0.6", "result": "1.4289 ± 0.0006"},
      {"measurement": "refractive index", "setting": "303.15 K, x1 = 0.6974", "result": "1.4311 ± 0.0006"},
      {"measurement": "refractive index", "setting": "303.15 K, x1 = 0.8008", "result": "1.433 ± 0.0006"},
      {"measurement": "refractive index", "setting": "303.15 K, x1 = 0.9031", "result": "1.4344 ± 0.0006"},
      {"measurement": "refractive index", "setting": "303.15 K, x1 = 1", "result": "1.4356 ± 0.0006"},
      {"measurement": "refractive index", "setting": "308.15 K, x1 = 0.0493", "result": "1.3536 ± 0.0005"},
      {"measurement": "refractive index", "setting": "308.15 K, x1 = 0.0657", "result": "1.3599 ± 0.0005"},
      {"measurement": "refractive index", "setting": "308.15 K, x1 = 0.1054", "result": "1.3732 ± 0.0005"},
      {"measurement": "refractive index", "setting": "308.15 K, x1 = 0.1987", "result": "1.3956 ± 0.0005"},
      {"measurement": "refractive index", "setting": "308.15 K, x1 = 0.301", "result": "1.4105 ± 0.0005"},
      {"measurement": "refractive index", "setting": "308.15 K, x1 = 0.3834", "result": "1.4186 ± 0.0005"},
      {"measurement": "refractive index", "setting": "308.15 K, x1 = 0.5041", "result": "1.4239 ± 0.0006"},
      {"measurement": "refractive index", "setting": "308.15 K, x1 = 0.6", "result": "1.4272 ± 0.0006"},
      {"measurement": "refractive index", "setting": "308.15 K, x1 = 0.6974", "result": "1.4294 ± 0.0006"},
      {"measurement": "refractive index", "setting": "308.15 K, x1 = 0.8008", "result": "1.4313 ± 0.0006"},
      {"measurement": "refractive index", "setting": "308.15 K, x1 = 0.9031", "result": "1.4328 ± 0.0006"},
      {"measurement": "refractive index", "setting": "308.15 K, x1 = 1", "result": "1.4339 ± 0.0007"},
      {"measurement": "refractive index", "setting": "313.15 K, x1 = 0.0493", "result": "1.3527 ± 0.0005"},
      {"measurement": "refractive index", "setting": "313.15 K, x1 = 0.0657", "result": "1.3589 ± 0.0005"},
      {"measurement": "refractive index", "setting": "313.15 K, x1 = 0.1054", "result": "1.372 ± 0.0005"},
      {"measurement": "refractive index", "setting": "313.15 K, x1 = 0.1987", "result": "1.394 ± 0.0006"},
      {"measurement": "refractive index", "setting": "313.15 K, x1 = 0.301", "result": "1.4091 ± 0.0005"},
      {"measurement": "refractive index", "setting": "313.15 K, x1 = 0.3834", "result": "1.417 ± 0.0006"},
      {"measurement": "refractive index", "setting": "313.15 K, x1 = 0.5041", "result": "1.4221 ± 0.0006"},
      {"measurement": "refractive index", "setting": "313.15 K, x1 = 0.6", "result": "1.4254 ± 0.0006"},
      {"measurement": "refractive index", "setting": "313.15 K, x1 = 0.6974", "result": "1.4275 ± 0.0006"},
      {"measurement": "refractive index", "setting": "313.15 K, x1 = 0.8008", "result": "1.4293 ± 0.0006"},
      {"measurement": "refractive index", "setting": "313.15 K, x1 = 0.9031", "result": "1.4306 ± 0.0007"},
      {"measurement": "refractive index", "setting": "313.15 K, x1 = 1", "result": "1.4318 ± 0.0007"},
      {"measurement": "refractive index", "setting": "318.15 K, x1 = 0.0493", "result": "1.3517 ± 0.0005"},
      {"measurement": "refractive index", "setting": "318.15 K, x1 = 0.0657", "result": "1.3579 ± 0.0005"},
      {"measurement": "refractive index", "setting": "318.15 K, x1 = 0.1054", "result": "1.3708 ± 0.0005"},
      {"measurement": "refractive index", "setting": "318.15 K, x1 = 0.1987", "result": "1.3921 ± 0.0005"},
      {"measurement": "refractive index", "setting": "318.15 K, x1 = 0.301", "result": "1.4074 ± 0.0006"},
      {"measurement": "refractive index", "setting": "318.15 K, x1 = 0.3834", "result": "1.4151 ± 0.0006"},
      {"measurement": "refractive index", "setting": "318.15 K, x1 = 0.5041", "result": "1.4204 ± 0.0006"},
      {"measurement": "refractive index", "setting": "318.15 K, x1 = 0.6", "result": "1.4238 ± 0.0006"},
      {"measurement": "refractive index", "setting": "318.15 K, x1 = 0.6974", "result": "1.4257 ± 0.0006"},
      {"measurement": "refractive index", "setting": "318.15 K, x1 = 0.8008", "result": "1.4274 ± 0.0006"},
      {"measurement": "refractive index", "setting": "318.15 K, x1 = 0.9031", "result": "1.4288 ± 0.0006"},
      {"measurement": "refractive index", "setting": "318.15 K, x1 = 1", "result": "1.4298 ± 0.0007"},
      {"measurement": "refractive index", "setting": "323.15 K, x1 = 0.0493", "result": "1.3507 ± 0.0005"},
      {"measurement": "refractive index", "setting": "323.15 K, x1 = 0.0657", "result": "1.3568 ± 0.0005"},
      {"measurement": "refractive index", "setting": "323.15 K, x1 = 0.1054", "result": "1.3696 ± 0.0007"},
      {"measurement": "refractive index", "setting": "323.15 K, x1 = 0.1987", "result": "1.3907 ± 0.0009"},
      {"measurement": "refractive index", "setting": "323.15 K, x1 = 0.301", "result": "1.4055 ± 0.0008"},
      {"measurement": "refractive index", "setting": "323.15 K, x1 = 0.3834", "result": "1.4134 ± 0.0008"},
      {"measurement": "refractive index", "setting": "323.15 K, x1 = 0.5041", "result": "1.4187 ± 0.0006"},
      {"measurement": "refractive index", "setting": "323.15 K, x1 = 0.6", "result": "1.422 ± 0.0007"},
      {"measurement": "refractive index", "setting": "323.15 K, x1 = 0.6974", "result": "1.4239 ± 0.0006"},
      {"measurement": "refractive index", "setting": "323.15 K, x1 = 0.8008", "result": "1.4257 ± 0.0006"},
      {"measurement": "refractive index", "setting": "323.15 K, x1 = 0.9031", "result": "1.4268 ± 0.0007"},
      {"measurement": "refractive index", "setting": "323.15 K, x1 = 1", "result": "1.4278 ± 0.0007"}
    ]}
  ]
}
